Experimental data taken from patent publication US20110040086A1, “Novel Beta-Lactam Antibiotics, Methods for Their Production, and Their Use” (DRITTE PATENTPORTFOLIO BETEILIGUNGSGESELLSCHAFT MB, priority 2007, published 2011).

Key:
B. subtilis AWD 166 = experiment: agar diffusion test (antimicrobial effect); assay type: cell-based, Bacillus subtilis
Procedure: (§1) The seeding of bacteria in agar is selected so that, dense, but not confluent individual colonies develop after the incubation.
(§2) The inoculated nutrient agar is set in sterile Petri dishes and left standing for a few minutes for drying.
(§3) The test substances are deposited in stepped quantities (10 μg, 50 μg, 100 μg) onto active ingredient carriers (sensi-discs). For this purpose, the test substances are dissolved in methanol or A. dest. according to their solubility. Each inoculated plate is fitted with 3 test sheets.
(§4) After a 20-hour incubation time at 37° C., the zones of inhibition around the individual test sheets could be measured. The diameter of the zone of inhibition is specified in mm.

S. aureus 39105 = experiment: agar diffusion test (Test System II, multi-resistant germs); assay type: cell-based, Staphylococcus aureus; design: key: r = resistant (no detectable zone of inhibition)
Procedure: as §3
(§5) Test System II (Effect Against Multi-Resistant Germs)
(§6) For this purpose, bacteria is cultivated on Müller-Hinton-Agar II plates.
(§7) With 1-1.5 ml physiological saline solution, a bacteria suspension of McFarland 0.5 (corresponds to a bacteria density of 150×10^6 germs) is produced. Then, with a sterile glass rod, a small drop of bacteria suspension is placed on the Müller-Hinton-Agar plate and coated in three layers (vertical, horizontal, and transverse). Thereafter, the sensi-discs with the novel semi-synthetic test substances are placed on top. The fitted plates are incubated for 18-20 hours at 37° C. After incubation, the diameters of the zones of inhibition are read as a measure for the antimicrobial activity of the novel semi-synthetic test substances.

S. aureus 520 = experiment: as above; assay type: cell-based, Staphylococcus aureus; design: key: r = resistant (no detectable zone of inhibition)
Procedure: as §3, §5, §6, §7

S. aureus 36881 = experiment: as above; assay type: cell-based, Staphylococcus aureus; design: key: r = resistant (no detectable zone of inhibition)
Procedure: as §3, §5, §6, §7

[1] = tested on: S. aureus North Germany strain; experiment: as above; assay type: cell-based, Staphylococcus aureus; design: key: r = resistant (no detectable zone of inhibition)
Procedure: as §3, §5, §6, §7

S. aureus 34289 = experiment: as above; assay type: cell-based, Staphylococcus aureus; design: key: r = resistant (no detectable zone of inhibition)
Procedure: as §3, §5, §6, §7

S. aureus 526 = experiment: as above; assay type: cell-based, Staphylococcus aureus; design: key: r = resistant (no detectable zone of inhibition)
Procedure: as §3, §5, §6, §7

S. aureus 33490 = experiment: as above; assay type: cell-based, Staphylococcus aureus; design: key: r = resistant (no detectable zone of inhibition)
Procedure: as §3, §5, §6, §7

S. epidermidis 1068 = experiment: as above; assay type: cell-based, Staphylococcus epidermidis; design: key: r = resistant (no detectable zone of inhibition)
Procedure: as §3, §5, §6, §7

S. epidermidis 847 = experiment: as above; assay type: cell-based, Staphylococcus epidermidis; design: key: r = resistant (no detectable zone of inhibition)
Procedure: as §3, §5, §6, §7

S. epidermidis 563 = experiment: as above; assay type: cell-based, Staphylococcus epidermidis; design: key: r = resistant (no detectable zone of inhibition)
Procedure: as §3, §5, §6, §7

S. epidermidis 1071 = experiment: as above; assay type: cell-based, Staphylococcus epidermidis; design: key: r = resistant (no detectable zone of inhibition)
Procedure: as §3, §5, §6, §7

S. aureus ATCC 6538 = experiment: as above; assay type: cell-based, Staphylococcus aureus
Procedure: as §3, §5, §6, §7

S. aureus 38418 = experiment: as above; assay type: cell-based, Staphylococcus aureus
Procedure: as §3, §5, §6, §7

[2] = tested on: Staphylococcus aureus 315; experiment: as above; assay type: cell-based; design: key: r = resistant (no detectable zone of inhibition)
Procedure: as §3, §5, §6, §7

[3] = tested on: Enterococcus faecalis 769; experiment: as above; assay type: cell-based; design: key: r = resistant (no detectable zone of inhibition)
Procedure: as §3, §5, §6, §7

E. faecalis 945 = experiment: as above; assay type: cell-based, Enterococcus faecalis; design: key: r = resistant (no detectable zone of inhibition)
Procedure: as §3, §5, §6, §7

S. epidermidis 125 = experiment: as above; assay type: cell-based, Staphylococcus epidermidis
Procedure: as §3, §5, §6, §7

[4] = tested on: Escherichia coli SBUG 1135; experiment: agar diffusion test (Test System 1, antimicrobial effect); assay type: cell-based; design: key: r = resistant (no detectable zone of inhibition)
Procedure: (§8) Test System 1 (Antimicrobial Effect)
(§9) The test germs Escherichia coli SBUG 1135 and Bacillus megaterium SBUG 1152 are drawn overnight (17 hours at 37° C.) in 5 ml nutrient medium II. The incubation is performed in a shaking incubator (INFORS AG CH 4103, Bottmingen, Switzerland) at a shaking frequency of 180 rpm.
(§10) After 17 h incubation time, Escherichia coli has reached a cell density of ca. 2.4×10^10 cells/ml and Bacillus megaterium a cell density of ca. 2.1×10^8 cells/ml.
as §1
Escherichia coli: the ÜN is diluted 1:100 with physiological saline solution, of which 0.1 ml is converted into 10 ml nutrient agar. That corresponds to a cell count of 10^6.
as §2, §3, §4

[5] = tested on: Bacillus megaterium SBUG 1152; experiment: as above; assay type: cell-based
Procedure: as §8, §9, §10, §1
Bacillus megaterium: 0.1 ml of non-diluted overnight culture (ÜN) in 10 ml nutrient agar corresponds to a cell count of 10^6.
as §2, §3, §4

COC(=O)C1=C(NC(C(=O)NC2C(=O)N3C(C(=O)O)=C(C)CSC23)c2ccccc2)C(=O)C=CC1=O (stereo not drawn) [1g, 7-[2-(2-methoxycarbonyl-3,6-dioxocyclohexa-1,4-dienylamino)-2-phenyl-acetylamino]-desacetoxycephalosporanic acid]
Diameter of zone of inhibition (B. subtilis AWD 166; Quantity n 0.029): 24 mm
Diameter of zone of inhibition (B. subtilis AWD 166; Quantity n 0.14): 30 mm
Diameter of zone of inhibition (B. subtilis AWD 166; Quantity n 0.29): 32 mm
Diameter of zone of inhibition (S. aureus 39105; Quantity n 0.029): r
Diameter of zone of inhibition (S. aureus 39105; Quantity n 0.14): 10 mm
Diameter of zone of inhibition (S. aureus 39105; Quantity n 0.29): 18 mm
Diameter of zone of inhibition (S. aureus 520; Quantity n [mol] 0.029): r
Diameter of zone of inhibition (S. aureus 520; Quantity n [mol] 0.14): r
Diameter of zone of inhibition (S. aureus 520; Quantity n [mol] 0.29): r
Diameter of zone of inhibition (S. aureus 36881; Quantity n 0.029): r
Diameter of zone of inhibition (S. aureus 36881; Quantity n 0.14): r
Diameter of zone of inhibition (S. aureus 36881; Quantity n 0.29): 12 mm
Diameter of zone of inhibition ([1]; Quantity n 0.029): r
Diameter of zone of inhibition ([1]; Quantity n 0.14): 10 mm
Diameter of zone of inhibition ([1]; Quantity n 0.29): 14 mm
Diameter of zone of inhibition (S. aureus 34289; Quantity n [mol] 0.029): r
Diameter of zone of inhibition (S. aureus 34289; Quantity n [mol] 0.14): r
Diameter of zone of inhibition (S. aureus 34289; Quantity n [mol] 0.29): r
Diameter of zone of inhibition (S. aureus 526; Quantity n 0.029): r
Diameter of zone of inhibition (S. aureus 526; Quantity n 0.14): r
Diameter of zone of inhibition (S. aureus 526; Quantity n 0.29): r
Diameter of zone of inhibition (S. aureus 33490; Quantity n [μmol] 0.029): r
Diameter of zone of inhibition (S. aureus 33490; Quantity n [μmol] 0.14): 20 mm
Diameter of zone of inhibition (S. aureus 33490; Quantity n [μmol] 0.29): 24 mm
Diameter of zone of inhibition (S. epidermidis 1068; Quantity n 0.029): r
Diameter of zone of inhibition (S. epidermidis 1068; Quantity n 0.14): 14 mm
Diameter of zone of inhibition (S. epidermidis 1068; Quantity n 0.29): 18 mm
Diameter of zone of inhibition (S. epidermidis 847; Quantity n [mol] 0.029): r
Diameter of zone of inhibition (S. epidermidis 847; Quantity n [mol] 0.14): 14 mm
Diameter of zone of inhibition (S. epidermidis 847; Quantity n [mol] 0.29): 18 mm
Diameter of zone of inhibition (S. epidermidis 563; Quantity n 0.029): r
Diameter of zone of inhibition (S. epidermidis 563; Quantity n 0.14): 8 mm
Diameter of zone of inhibition (S. epidermidis 563; Quantity n 0.29): 14 mm
Diameter of zone of inhibition (S. epidermidis 1071; Quantity n 0.029): r
Diameter of zone of inhibition (S. epidermidis 1071; Quantity n 0.14): 18 mm
Diameter of zone of inhibition (S. epidermidis 1071; Quantity n 0.29): 22 mm
Diameter of zone of inhibition (S. aureus ATCC 6538; Quantity n 0.029): 20 mm
Diameter of zone of inhibition (S. aureus ATCC 6538; Quantity n 0.14): 28 mm
Diameter of zone of inhibition (S. aureus ATCC 6538; Quantity n 0.29): 32 mm
Diameter of zone of inhibition (S. aureus 38418; Quantity n [mol] 0.029): 16 mm
Diameter of zone of inhibition (S. aureus 38418; Quantity n [mol] 0.14): 26 mm
Diameter of zone of inhibition (S. aureus 38418; Quantity n [mol] 0.29): 30 mm
Diameter of zone of inhibition ([2]; Quantity n 0.029): r
Diameter of zone of inhibition ([2]; Quantity n 0.14): r
Diameter of zone of inhibition ([2]; Quantity n 0.29): 12 mm
Diameter of zone of inhibition ([3]; Quantity n 0.029): r
Diameter of zone of inhibition ([3]; Quantity n 0.14): r
Diameter of zone of inhibition ([3]; Quantity n 0.29): r
Diameter of zone of inhibition (E. faecalis 945; Quantity n 0.029): r
Diameter of zone of inhibition (E. faecalis 945; Quantity n 0.14): r
Diameter of zone of inhibition (E. faecalis 945; Quantity n 0.29): r
Diameter of zone of inhibition (S. epidermidis 125; Quantity n 0.029): 14 mm
Diameter of zone of inhibition (S. epidermidis 125; Quantity n 0.14): 24 mm
Diameter of zone of inhibition (S. epidermidis 125; Quantity n 0.29): 28 mm
Diameter of zone of inhibition ([4]; Quantity n 0.029): r
Diameter of zone of inhibition ([4]; Quantity n 0.14): 16 mm
Diameter of zone of inhibition ([4]; Quantity n 0.29): 22 mm
Diameter of zone of inhibition ([5]; Quantity n 0.029): 20 mm
Diameter of zone of inhibition ([5]; Quantity n 0.14): 30 mm
Diameter of zone of inhibition ([5]; Quantity n 0.29): 34 mm
